Data as given in US5077296A, “Method for treating equine navicular disease with pentoxifylline, and composition containing pentoxifylline for administrating to horses” (priority 1987, dated 1991).
Values joined by “and” are separate entries in the source; they are usually repeats but may differ in a detail not shown here. Equal values may be shown once.

Tests used:
navicular disease [1] = conditions: cited from earlier work
navicular disease [2] = assay: Conventional navicular disease treatments (background discussion); format: in vivo; conditions: horse #18 (Molson), intermittent lameness over previous 5 months
Description: To illustrate the advantages of pentoxifylline over existing navicular disease treatments, the following conventional treatments will be discussed herein.

[3] = Side effects during the study
Description: (§1) Follow-up observations occurred weekly during the six week treatment period, and for a final time approximately 4 weeks after the 6 week treatment period was over. The follow-up visits consisted of a lameness evaluation on the lunge line, at the walk and at rest. Owners/trainers were asked to report any side effects observed that may or may not have been related to Pentoxifylline therapy, and any other problems that had arisen during the week, concurrent medications administered for other causes, and the horse's progress while being exercised. Blood samples were drawn prior to first treatment, at 3 weeks, and at 6 weeks for routine hematological and clinical chemistry profiles. Samples were drawn prior to lameness examination after the horse had been resting quietly in the stall. Most samples were drawn early in the afternoon, and were immediately submitted to Metro Animal Laboratories, Bloor Street, Toronto.

[4] = cited from earlier work
navicular disease [5] = assay: Long term efficacy: follow up evaluation of soundness after termination of the 6 week treatment; format: in vivo, horse
Description: Ten horses received a further follow up evaluation after termination of the 6 week treatment period. The horses are listed below, along with the date of visit (weeks post-initiation of study) and the soundness evaluation.

[6] = in vivo
Description: as §1

navicular disease [7] = assay: Efficacy of oral pentoxifylline in the treatment of navicular disease in horses (6 week lameness study); format: in vivo, horse
Description: As previously mentioned, it is preferred to administer daily doses of pentoxifylline for a prescribed period of time in order to alleviate lameness caused by navicular disease. […] It is preferred to administer the daily doses tid. In this regard, powder, tablet or capsule formulations, containing between 2-10 gm of pentoxifylline should be administered for this purpose. As previously indicated, the amount of daily doses is dependent on a variety of factors, including the size of the horse being treated.
The purpose of the following study was to assess the efficacy of pentoxifylline in the treatment of navicular disease in horses; to establish an appropriate dosage and treatment interval, and to identify adverse effects from treatment.
Twenty-seven horses entered the study between September 1985 and March 1986.
Pentoxifylline was supplied as an oral powder prepared in individual plastic vials of 2 gm Pentoxifylline mixed with 4 gm icing sugar, to ensure palatability.
Diagnosis of navicular disease was made using the following criteria:
1) history - including clinical and previous treatment history.
lameness observed at walk and while lunging to the left and to the right.
3) diagnostic posterior digital nerve block
horses not sound following bilateral desensitization of the posterior digital nerves were not admitted into the study
4) radiographic examination of confirmation of disease as noted by classical navicular lesions, on a minimum of three views
Treatment was administered daily for 42 days.
Horses were characterized as either severely lame, moderately lame, or slightly lame, as follows:
Treatment response was classified as excellent, good, fair, or poor.
Soundness was subjectively rated by the veterinarian on a percent basis. Percent soundness at the study's onset was subtracted from percent soundness at the study's conclusion, and this difference was plotted as a histogram (graph 2), to show the magnitude of improvement with the 6 week course of treatment. At week 4 there was an average of 57% improvement. For instance, horse number 3 was rated as 25% sound at the onset of the study, and 100% sound after six weeks, yielding an improvement of 75%.

[8] = duration of lameness 2 years-5 years (5)
[9] = duration of lameness 5 years (4)
[10] = duration of lameness 6 months (7)
[11] = duration of lameness <6 months, >2 years (11)
[12] = lameness at onset moderate (11)

For `CC(=O)CC(c1ccccc1)c1c(O)c2ccccc2oc1=O` (racemic) [Warfarin], the safety disadvantage (navicular disease [1]; accidental lacerations or injuries) is listed as “can be fatal due to hemmorrhage”.
In the case of `CCCCC1C(=O)N(c2ccccc2)N(c2ccccc2)C1=O` [phenylbutazone], the “response to previous treatment” value (navicular disease [2]) is given as “responded” and the side effects (navicular disease [1]; in vivo) is given as “risk of gastric and cecal ulcers and kidney damage”.
In the case of `CC(=O)CCCCn1c(=O)c2c(ncn2C)n(C)c1=O` [pentoxifylline, 1-(5-oxohexyl)-3,7-dimethylxanthine], the Sweating episodes ([3]; horse 14 Cash in McCue, after 2 weeks) is reported as 5 episodes, the “Stocked up, number of horses” value ([3]; horse 15 Cheska, RF at week 6) is reported as 1 horses and the “Colic, number of horses” value ([3]; horse 23 Greek Anthem, between weeks 2 and 3, previous history of colic) is reported as 1 horses. The “Sweating, number of horses” value ([3]; horses 14 and 20) was 2 horses, the “Colic, relation to drug” value ([3]; in vivo) was “unrelated” and the “Stocked up, relation to drug” value ([3]; in vivo) was “unrelated”. For the same compound, the harmful side effects ([3]; in vivo) was “have not been identified”, the “horses with unusual occurrences” value ([3]; in vivo) was “Four horses” and the “instances judged drug-related side effect” value ([3]; throughout the study) was 1. For the same compound, the Sweating in humans ([4]; human side effect) was “occasional human side effect”, the “lag period to maximum response in man” value ([4]; lag in horses said to be similar) was “two week period” and the “horses judged to be sore again after cessation of treatment” value (navicular disease [5]; 2 weeks after cessation, Innovator, Capital Gains, Ensign) was “Three horses”. For the same compound, the follow up soundness (navicular disease [5]; horse 1 Jake, 9 weeks post-initiation) was 80 % sound, the follow up soundness (navicular disease [5]; horse 1 Jake, 11 weeks, being ridden) was “still sound” and the follow up soundness (navicular disease [5]; horse 1 Jake, 20 weeks, being ridden) was 100 % sound. For the same compound, the Status (navicular disease [5]; horse 1 Jake, greater than 6 weeks) was “Improved”, the Status (navicular disease [5]; horse 2 Lucky Lion, 2 gm once per day maintenance at 10 weeks) was “Improved” and the Status (navicular disease [5]; horse 3 Remeny) was “Improved”. For the same compound, the follow up soundness (navicular disease [5]; horse 3 Remeny, 12 weeks) was “hunting sound”, the follow up soundness (navicular disease [5]; horse 3 Remeny, 18 weeks) was “very sound” and the Status (navicular disease [5]; horse 4 Ensign) was “Same”. For the same compound, the follow up soundness (navicular disease [5]; horse 4 Ensign, 8 weeks) was “sore RF”, the follow up soundness (navicular disease [5]; horse 4 Ensign, 11 weeks, when given 2 gm/day) was “sound again” and the Status (navicular disease [5]; horse 5 Wessex) was “Improved”. The follow up soundness (navicular disease [5]; horse 5 Wessex, 15 weeks, compared with end of the 6 weeks) was “sounder than”, the Status (navicular disease [5]; horse 11 Capital Gains) was “Improved” and the follow up soundness (navicular disease [5]; horse 11 Capital Gains, 8 weeks, without drug) was “less sound”. For the same compound, the Status (navicular disease [5]; horse 13 Peaches 'N Cream) was “Same”, the follow up soundness (navicular disease [5]; horse 13 Peaches 'N Cream, 11 weeks, compared with when entered study) was “as sound” and the Status (navicular disease [5]; horse 14 Cash in McCue) was “Improved”. The follow up soundness (navicular disease [5]; horse 14 Cash in McCue, 12 weeks) was 100 % sound, the Status (navicular disease [5]; horse 16 B. E. Skipper) was “Improved” and the “follow up soundness in field” value (navicular disease [5]; horse 16 B. E. Skipper, 11 weeks, looks sound in field) was 100 % sound. The follow up soundness (navicular disease [5]; horse 16 B. E. Skipper, 11 weeks, riding again) was 90 % sounder, the Status (navicular disease [5]; horse 20 Innovator) was “Worse” and the “follow up soundness to LT” value (navicular disease [5]; horse 20 Innovator, 7 weeks) was 80 % sounder. For the same compound, the “follow up soundness to RT” value (navicular disease [5]; horse 20 Innovator, 7 weeks) was 90 % sounder, the follow up lameness (navicular disease [5]; horse 20 Innovator, 9 weeks, compared with before treatment) was “as lame at 9 weeks as he had been prior to treatment” and the “horses considered sounder than at the end of the 6 week treatment period” value (navicular disease [5]; of 10 horses followed up) was “Seven of these 10 horses”. For the same compound, the “pattern when drug administration ceased” value (navicular disease [5]; other horses) was “regressed rapidly when treatment ended”, the “pattern when drug administration ceased” value (navicular disease [5]; some cases) was “maintained the improvement noted at 6 weeks” and the Baso mean [6] was 0.5%. For the same compound, the Cl mean [6] was 98.9 mmol/L, the “Clinical chemistry values vs equine reference range” value [6] was “within the reference range for the equine species” and the “Hematology values vs normal limits” value [6] was “within normal limits throughout the study”. For the same compound, the “Mean clinical chemistry values vs baseline” value [6] was “did not differ significantly”, the “Number of horses with platelets increased since baseline” value [6] was 20 horses and the Platelets increase [6] was 4,520. For the same compound, the “clinical effect on blood chemistry” value [6] was “no clinical effect”, the “horses with lower platelet count at week 6 than at week 3” value [6] was 13 horses and the response over time (navicular disease [7]; 1 week) was “evident at 1 week”. For the same compound, the response over time (navicular disease [7]; 2 and 3 weeks) was “marked at 2 and 3 weeks”, the response at dose (navicular disease [7]; 2 gm bid) was “not considered consistently optimal” and the response at dose (navicular disease [7]; 6 gram dosage divided tid) was “achieved the best results”. For the same compound, the response over time (navicular disease [7]; between 4 and 6 weeks) was “did not regress between 4 and 6 weeks”, the “excellent responses, % of horses” value (navicular disease [7]; cases of greater than 5 years duration, 4 horses) was 50% and the “excellent responses, number of horses” value (navicular disease [7]; cases of greater than 5 years duration, out of 4 horses) was 2 horses. For the same compound, the “effect on navicular lameness” value (navicular disease [7]; daily doses between 6 gm and 30 gm for 4-6 weeks) was “effective in completely eliminating navicular lameness”, the “Response excellent, number of horses” value (navicular disease [7]; [8]) was 2 horses and the “Response good, number of horses” value (navicular disease [7]; [8]) was 1 horses. For the same compound, the “Response poor, number of horses” value (navicular disease [7]; [8]) was 1 horses, the “Response excellent, number of horses” value (navicular disease [7]; [9]) was 2 horses and the “Response fair, number of horses” value (navicular disease [7]; [9]) was 1 horses. For the same compound, the “Response good, number of horses” value (navicular disease [7]; [9]) was 1 horses, the “Response excellent, number of horses” value (navicular disease [7]; [10]) was 4 horses and the “Response good, number of horses” value (navicular disease [7]; [10]) was 1 horses. The “Response poor, number of horses” value (navicular disease [7]; [10]) was 1 horses, the “Response excellent, number of horses” value (navicular disease [7]; [11]) was 7 horses and the “Response fair, number of horses” value (navicular disease [7]; [11]) was 1 horses. The “Response good, number of horses” value (navicular disease [7]; [11]) was 2 horses, the “Response poor, number of horses” value (navicular disease [7]; [11]) was 1 horses and the “excellent responses, % of horses” value (navicular disease [7]; duration of lameness up to two years, 18 horses) was 61%. For the same compound, the “excellent responses, number of horses” value (navicular disease [7]; duration of lameness up to two years, out of 18 horses) was 11 horses, the treatment response (navicular disease [7]; horse #9 (It's Casual), six week course, previous bilateral neurectomy) was “never showed significant improvement” and the treatment assessment (navicular disease [7]; horse #15 (Cheska)) was “refractory to pentoxifylline treatment”. The evaluated sounder (navicular disease [7]; horse #15 (Cheska), end of 4 weeks, dosage increased to 2 gm tid) was 90%, the treatment response (navicular disease [7]; horse #15 (Cheska), first 3 weeks, 2 gm bid, drug not administered properly) was “virtually no response” and the lameness (navicular disease [7]; horse #15 (Cheska), weeks 5 and 6, after jumping in 4th week) was “as lame as at the beginning”. The treatment assessment (navicular disease [7]; horse #18 (Molson), irregular treatment) was “refractory to treatment”, the treatment response (navicular disease [7]; horse #18 (Molson), week 3 and week 5) was “marked improvement” and the lameness (navicular disease [7]; horse #18 (Molson), week 6, inconsistent drug administration) was “as lame as at the onset of the study”. The “percent soundness after six weeks” value (navicular disease [7]; horse number 3, 25% sound at onset) was 100%, the “improvement in percent soundness” value (navicular disease [7]; horse number 3, six weeks vs onset) was 75% and the “response by lameness at onset” value (navicular disease [7]; horses with moderate lameness) was “preponderance of excellent responses”. For the same compound, the “Response excellent, number of horses” value (navicular disease [7]; [12]) was 7 horses, the “Response fair, number of horses” value (navicular disease [7]; [12]) was 2 horses and the “Response good, number of horses” value (navicular disease [7]; [12]) was 1 horses. For the same compound, the “Response good, number of horses” value (navicular disease [7]; lameness at onset severe (8)) was 1 horses, the “Response poor, number of horses” value (navicular disease [7]; lameness at onset severe (8)) was 3 horses and the “Response good, number of horses” value (navicular disease [7]; lameness at onset slight (2)) was 2 horses. The “Response excellent, number of horses” value (navicular disease [7]; lameness at onset slight-moderate (6)) was 6 horses, the “Response fair, number of horses” value (navicular disease [7]; n = 25, oral, 42 days) was 2 horses and the “Response good, number of horses” value (navicular disease [7]; n = 25, oral, 42 days) was 5 horses. The “Response poor, number of horses” value (navicular disease [7]; n = 25, oral, 42 days) was 3 horses, the “Response excellent, number of horses” value (navicular disease [7]; n = 25, oral, 42 days, 2 gm bid or tid) was 15 horses and the “Response excellent, % of horses” value (navicular disease [7]; oral, 4 to 6 week treatment) was 63%. For the same compound, the “Response fair, % of horses” value (navicular disease [7]; oral, 4 to 6 week treatment) was 8%, the “Response good, % of horses” value (navicular disease [7]; oral, 4 to 6 week treatment) was 20% and 17% and the “Response poor, % of horses” value (navicular disease [7]; oral, 42 days) was 13%. The “time of maximal response” value (navicular disease [7]; response over time, graph 1) was 4 weeks, the “effect on lameness of navicular disease” value (navicular disease [7]; varying severity and duration) was “effective in alleviating the lameness” and the “average improvement in percent soundness” value (navicular disease [7]; week 4, subjective rating by veterinarian, difference from onset) was 57%.
For `CC(COc1ccccc1)NC(C)C(O)c1ccc(O)cc1` (stereo not shown) [Isoxsuorine], the efficacy (navicular disease [1]; generic, unpredictable results) is given as “Approximately 50%”.
